Read-outs that look alike come from different tables or passages of the source. Where a SMILES comes first, the peptide text is derived from it. Bridges are numbered along the chain shown (N, C = ends).
Legend:
[1] = target: T1, IDE (Homo sapiens, UniProt P14735); experiment: IDE protease activity assay, insulin degradation quantified by ELISA; format: biochemical
T1 construct: made in house; host or cells: bacteria
T1 sequence (P14735 1-1019): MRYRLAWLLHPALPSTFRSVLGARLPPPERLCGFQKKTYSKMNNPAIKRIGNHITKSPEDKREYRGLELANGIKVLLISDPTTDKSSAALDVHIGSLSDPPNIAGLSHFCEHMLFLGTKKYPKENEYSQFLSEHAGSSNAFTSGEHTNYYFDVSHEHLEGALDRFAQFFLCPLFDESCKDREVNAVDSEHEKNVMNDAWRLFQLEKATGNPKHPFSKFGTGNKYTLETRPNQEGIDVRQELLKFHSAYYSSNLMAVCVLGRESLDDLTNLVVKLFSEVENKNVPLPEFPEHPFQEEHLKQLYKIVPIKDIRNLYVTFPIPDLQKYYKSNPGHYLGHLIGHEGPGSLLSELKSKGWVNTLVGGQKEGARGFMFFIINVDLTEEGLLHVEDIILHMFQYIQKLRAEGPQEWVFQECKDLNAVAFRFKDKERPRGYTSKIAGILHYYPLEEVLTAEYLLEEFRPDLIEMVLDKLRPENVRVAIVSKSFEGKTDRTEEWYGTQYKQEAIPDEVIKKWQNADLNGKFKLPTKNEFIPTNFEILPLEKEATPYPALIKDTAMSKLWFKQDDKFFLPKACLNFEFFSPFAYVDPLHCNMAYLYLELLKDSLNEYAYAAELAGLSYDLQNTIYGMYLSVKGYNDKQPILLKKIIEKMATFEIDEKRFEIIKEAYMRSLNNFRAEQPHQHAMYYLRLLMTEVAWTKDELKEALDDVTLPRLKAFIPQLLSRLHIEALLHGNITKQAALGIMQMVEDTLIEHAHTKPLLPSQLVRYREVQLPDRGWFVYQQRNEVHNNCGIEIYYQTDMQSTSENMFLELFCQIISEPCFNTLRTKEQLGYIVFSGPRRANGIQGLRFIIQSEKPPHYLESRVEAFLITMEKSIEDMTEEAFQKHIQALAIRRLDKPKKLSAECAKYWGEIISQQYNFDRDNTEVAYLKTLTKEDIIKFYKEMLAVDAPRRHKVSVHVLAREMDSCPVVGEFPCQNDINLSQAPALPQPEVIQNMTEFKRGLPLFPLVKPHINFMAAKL
Description: To assess the extent to which these peptide sequences inhibit IDE, we quantified their potency in protease activity assays using recombinant human IDE and two different substrates: FRET1, a fluorogenic peptide (45), and recombinant human insulin.
Degradation Assays—IDE activity was quantified by monitoring the degradation of (7-methoxycoumarin-4-yl)acetic acid-[…](2,4-dinitrophenyl) (FRET1, 5 μM) (49,55), fluoresceinated and biotinylated amyloid β-protein (FAβB; 500 nM) or recombinant human insulin (50 nM) in PBS supplemented with 0.05% BSA. FRET1 degradation was measured by changes in fluorescence (λex=340 nm, λem=420 nm); FAβB degradation was monitored by fluorescence polarization (λex=488 nm, λem=525 nm), as described (56); and insulin degradation was quantified by ELISA. In vitro activity assays incorporated recombinant human IDE (1 nM) purified from bacteria (35). For quantitation of insulin degradation in primary murine skin fibroblasts, cells (1×10^5/well) were plated in 96-well plates and maintained in DMEM supplemented with 10% fetal bovine serum (FBS), 2 mM glutamine, penicillin and streptomycin. After addition of insulin (10 nM or 100 nM), samples of conditioned medium were removed daily and quickly frozen, then insulin levels were quantified in parallel by ELISA according to manufacturer's recommendations (Crystal Chem, Downers Grove, Ill., USA). Assessment of the activity of P12-3A against a variety of matrix-metalloproteases was conducted using the Matrix Metalloproteinase (MMP) Inhibitor Profiling Kit, Fluorometric RED (Enzo Life Sciences, Inc., Farmingdale, N.Y., USA) according to manufacturer's recommendations using the broad-spectrum MMP inhibitor, NNGH, as a positive control.

[2] = test system: primary murine skin fibroblasts; experiment: Insulin degradation in cultured skin fibroblasts, insulin in medium by ELISA; format: cell-based, mouse; settings: 100 μM P12-3A, 10 nM insulin, up to day 4, logarithmically growing cells
Description: FIG. 4A-F. Effects of P12-3A on cultured skin cells. A, Insulin concentrations as a function of time in logarithmically growing primary murine skin fibroblasts in the absence or presence of P12-3A (100 μM). […] Data are mean±SEM of 4 independent replications. *P<0.05, **P<0.01. B, Proliferation of cells in the absence or presence of P12-3A (100 μM). […] C,D,E, P12-3A (100 μM) potentiates insulin-induced collagen production in skin fibroblasts. Collagen production was assessed by COL1A1 mRNA levels (C), levels of hydroxyproline secreted into the medium (D), and cell-associated mature alpha-1 type I collagen levels detected by Western blotting (E). […] Migration of HaCaT cells 48 h after induction of a scratch wound in the presence of the indicated quantities of insulin and/or P12-3A (100 μM). […]
Insulin promotes wound healing and overall skin health by affecting a number of processes, including cell proliferation (2,3), cell migration (5,6), and the production and secretion of ECM components, particularly type I collagen (7-13). We therefore assessed the ability of P12-3A to influence these processes in cultured skin fibroblasts and keratinocytes. To that end, primary mouse skin fibroblasts were grown for 4 d in multiple concentrations of insulin in the presence or absence of P12-3A, and insulin concentration over time was monitored by ELISA. […]

[3] = test system: 15 different proteases; experiment: Selectivity of P12-3A against 15 other proteases (MMPs and peptidases of different classes); format: biochemical; settings: P12-3A 100 μM
Description: FIG. 8A-B. Selectivity of P12-3A for IDE vis-à-vis other proteases. Activity of P12-3A (100 μM) against (A) multiple matrix-metalloproteases (MMPs) and (B) multiple peptidases of different protease classes. […] Data are mean±SEM, n=8-16 per group. P<0.05 by 2-tailed Student's t-test. […] See Experimental Procedures for details. NEP, neprilysin; mCatD, murine cathepsin D; hCatD, human cathepsin D.
Degradation Assays—IDE activity was quantified by monitoring the degradation of (7-methoxycoumarin-4-yl)acetic acid-[…](2,4-dinitrophenyl) (FRET1, 5 μM) (49,55), fluoresceinated and biotinylated amyloid β-protein (FAβB; 500 nM) or recombinant human insulin (50 nM) in PBS supplemented with 0.05% BSA. FRET1 degradation was measured by changes in fluorescence (λex=340 nm, λem=420 nm); FAβB degradation was monitored by fluorescence polarization (λex=488 nm, λem=525 nm), as described (56); and insulin degradation was quantified by ELISA. In vitro activity assays incorporated recombinant human IDE (1 nM) purified from bacteria (35). For quantitation of insulin degradation in primary murine skin fibroblasts, cells (1×10^5/well) were plated in 96-well plates and maintained in DMEM supplemented with 10% fetal bovine serum (FBS), 2 mM glutamine, penicillin and streptomycin. […]

Ki ([1]; deliberately cyclized, highly pure cosmetic-grade P12-3A, n=6, read-out: Ki against insulin degradation): 2.5 ± 0.31 µM
Ki ([1]; substrate recombinant human insulin, Ki converted from IC50 with the Cheng-Prusoff equation, read-out: Ki Insulin): 4.1 ± 0.3 µM
SMILES: CC(C)C[C@H](NC(=O)[C@H](CO)NC(=O)[C@@H](N)CCC(N)=O)C(=O)N1CCC[C@H]1C(=O)N[C@@H](Cc1c[nH]c2ccccc12)C(=O)N[C@H]1CSSC[C@@H](C(=O)N[C@H](C(=O)N[C@H](C(N)=O)[C@@H](C)O)C(C)C)NC(=O)[C@H](Cc2c[nH]cn2)NC(=O)[C@@H]2CCCN2C(=O)[C@H](Cc2ccc(O)cc2)NC1=O [Peptide P12-3A] (H-QSLPWCYPHCVT-NH2; disulfide 6-10 (inferred))
insulin levels over time in cell culture [2]: remain constant
inhibition of 15 different proteases [3]: essentially no inhibition

From patent US11555055B2, “Peptide inhibitors of insulin-degrading enzyme” (The Regents of the University of California, priority 2017, dated 2023)
